These results are taken from US20060292072A1, “Agents for neutron capture therapy” (Pharmacyclics, Inc., priority 2001, published 2006).

In series [1] the test system is tumors. Conditions: prior art statement; cited from earlier work.
In series [2] the test system is V79 Chinese hamster cells. The series is described as follows: V79 Chinese hamster cell survival assay after neutron irradiation. Type of series: cell-based. The note with it: 30 ppm, incubated twelve hours; neutron beam 2.8×10^11 n/cm^2 min; colony growth 5-6 days. As for the experimental part: In vitro activity for neutron capture therapy is determined, e.g., by measuring the effect of low-level, thermal neutron irradiation on the V79 […] cell line in culture, and measuring resultant cytotoxicity, for example as described by Fairchild et al., Cancer Research 50. After the V79 cells are exposed to a neutron capture agent, they are irradiated with a neutron beam at a fluence rate of 2.8×10^11 n/cm^2 min. The cells are plated for undisturbed colony growth for 5-6 days, after which the remaining cell population is assessed.
The effect of neutron irradiation on V79 Chinese hamster cells incubated for twelve hours with ^157Gd-Tex is determined by a modification of the procedure originally described by Fairchild et al., Cancer Research 50 (1990). Three sets of sample plates of V79 cells are prepared. The first set (control cells) are suspended with 30 ppm ^157Gd-Tex in growth medium. The second set (washed cells) are suspended with 30 ppm ^157Gd-Tex in growth medium, then washed 3 times with PBS, trypsinized and harvested with gadolinium from reagents prior to suspension. The third set (ambient cells) are suspended in a 30 ppm ^157Gd containing medium.
All of the cells are irradiated within 1-2 hours following suspension in growth medium at a population density of 3.0×10^5 cells/ml. The neutron beam fluence rate at the center of the sample is 2.8×10^11 n/cm^2 min. […]

The conditions of series [3]: prior art statement; cited from earlier work.
The subject of series [4] is Glioma 261 tumor. Put plainly: Neutron capture activity in mice with intracerebral Glioma 261 tumor. The note with it: group A: Gd-Tex intravenous plus 1.2×10^12 neutrons/cm^2 (20 Gy), versus groups B-E; female C57BL/6 mice, up to 100 days. The class given is in vivo. As for the experimental part: In vivo activity for neutron capture therapy is determined, e.g., by post-mortem histological examination of brain tumor tissue by hematoxylin and eosin, as described in Saris et al., Cancer Research, vol. 52 (1992). The antitumor effects of neutron capture therapy are evaluated by implanting Glioma 261 tumor fragments into the brain of a mouse. Approximately 3 hours after administration of a neutron capture agent to be tested, the head is irradiated a with 1.2×10^12 neutron beam (resulting in a planned dose of […]). After 100 days the mouse is sacrificed and the tumorous and non-tumorous sections of the brain are stained with hematoxylin and eosin for histologic examination. The tumor bearing and control brain tissue sections are compared.
This procedure is a modification of a procedure initially described by Saris et al., Cancer Research, vol. 52 (1992). Glioma 261 tumor fragments are injected approximately 2 mm deep to the dura of the brain in 42 female C57BL/6 mice. The mice are randomized into 5 groups. The mice in group A receive […] mg/kg Gd-Tex and 1.2×10^12 neutrons/cm^2 resulting in 20 Gy. Group B mice receive 1.2×10^12 neutrons/cm^2 resulting in 20 Gy. The mice in group C receive […] mg/kg Gd-Tex and 10 Gy of photon irradiation. Group D receives […] mg/kg of Gd-Tex alone. Group E receives no treatment. […]

Consider `N[C@@H](Cc1ccc(B(O)O)cc1)C(=O)O` [p-boron-phenylalanine], for which, in series [1], the “selectivity for tumors / accumulation in tumor tissue” value (“selectivity for tumors / accumulation” for short) is “limited selectivity for tumors” and the tumor/blood concentration ratios entry is “poor tumor/blood concentration ratios”. With `O=C([O-])CN(CCN(CC(=O)[O-])CC(=O)O)CCN(CC(=O)[O-])CC(=O)O.[Gd+3]` [Gd-DTPA, gadolinium diethylenetriamine-pentaacetic acid], the “selectivity for tumors / accumulation” value in series [1] is recorded as “not found to be tumor selective”. Consider “^157Gd complex of 4,5-diethyl-10,23-dimethyl-9,24-bis(3-hydroxy propyl)-16,17-bis[2-[2-(2-methoxyethoxy)ethoxy]ethoxy]pentaazapentacyclo[20.2.1.1^3,6.1^8,11.0^14,19]heptacos a-1,3,5,7,9,11(27),12,14,16,18,20,22(25),23-tridecaene bis acetate [^157Gd-Tex]”, for which the “survival of the control cells compared with the washed or ambient cells” value in series [2] is given as “significantly higher”.

Turning to `O=C([O-])CN1CCN(CC(=O)[O-])CCN(CC(=O)O)CCN(CC(=O)[O-])CC1.[Gd+3]` [Gd-DOTA, gadoteric acid], in series [1], the “selectivity for tumors / accumulation” value was “not found to be tumor selective”.

Regarding “tetrakiscarborane carboxylate ester of 2,4-(a,b-dihydroxyethyl)deuteroporphyrin [BOPP]”, the phototoxicity result in series [3] was “phototoxic”. The “selectivity for tumors / accumulation” value in series [1] is reported as “poor selectivity for tumors”. Consider “bis(acetato-O)[9,10-diethyl-20,21-bis[2-[2-(2-methoxyethoxy)ethoxy]ethoxy]-4,15-dimethyl-8,11-imino-3,6:16,13-dinitrilo-1,18-benzodiazacycloeicosine-5,14-dipropanolato-N1,N18,N23,N24,N25]gadolinium [Gd-Tex]”, for which the survival rate result in series [4] is “greater survival rate than any of the other groups”.
